These results are taken from patent US5128242A, “Hypothalamic polypeptides with adenylate cyclase stimulating activity” (The Administrators of the Tulane Educational Fund, priority 1989, dated 1992).

One experiment deals with rat pituitary fragments. As to conditions: in vitro; Arimura et al. 1984; cited from earlier work.
Another experiment has as its system adenylate cyclase. The following applies: rat pituitary cell cultures. Here is the method:
Primary monolayer rat anterior pituitary cell culture was prepared as described previously (Culler et al., 1984). Anterior pituitaries from CD strain female rats of approximately 200 g bw (Charles River Breeding Labs, Wilmington, Mass.) at a random stage of estrous cycle were enzymatically dispersed with collagenase Type II and DNAse II. Dispersed cells were collected by centrifugation and washed three times with HEPES buffer and finally suspended in Dulbecco,s modified Eagle's medium (DMEM) containing 10% horse serum, 2.5% fetal calf serum and 1% antibiotic antimycotic solution (Gibco/Life Technologies, Grand Isle, NY) The cells are plated in 24-multiwell tissue culture plates (Falcon, Oxnard, Calif.) at a density of 1.5×10^5 cells/ml/well, and then incubated at 37° C. in a water-saturated atmosphere of 95% air 5% CO2 for 4 days. Prior to acute stimulation, cultured cells were incubated for 3 hr in serum-free DMEM with two changes of the medium. The cells were then incubated for 3 hr in 0.5 ml of HEPES-buffered DMEM containing test materials. Ascorbic acid (2.5×10^-4 M) and 0.25% BSA were routinely added to the medium during assay incubation in order to prevent possible oxidation and adsorption of test samples. […]
Cyclic AMP in the culture media was determined by RIA as described by Harper and Brooker (J. Cyclic Nucleo. Res. 1:207, 1975). […]

For experiment [1], the system named is neurons. The experiment can be described thus: Intracellular cAMP accumulation in cultured neurons. Format: cell-based, rat. As to conditions: for intracellular cAMP response in neurons: 10^-9 M added to culture medium. Here is the method: FIG. 6c. Intracellular cAMP accumulation in cultured neurons.
(§1) For studies on neurons, rat neuronal cell cultures were prepared by the method described by Raizada et al. (Raizada et al. Am. J. Physiol. 247:C364, 1984). Astrocyte cultures were prepared using the single-step transfer method as described by Clarke et al. (Clark et al., J. Biol. Chem. 259:11672, 1984). […] Intracellular cAMP levels remained elevated for at least 60 minutes in astrocytes, but began to decrease after 10 min in neurons.

For a further experiment, the system named is arterial blood pressure. The experiment can be described thus: Determination of depressor activity (arterial blood pressure) in urethane-anesthetized rats. The following applies: for vasodepressor activity: urethane-anaesthetized rats, dose range 0.33 nmole to 1.0 nmole. Format: in vivo, rat. Here is the method: Arterial blood pressure was measured in urethane (150 mg/100 g ip) anesthetized adult male rats. Polyethylene tubing (PE50) which was connected with a pressure transducer P-1000 B (Narco Bio-Systems) was inserted into the femoral artery. Blood pressure was recorded using Narcotrace 40. Another polyethylene tube (PE50) was inserted into a femoral vein for injection of test materials dissolved in 0.5 ml 0.9% saline.

A further experiment has as its system astrocytes. The experiment is described as follows: Intracellular cAMP accumulation in cultured astrocytes. As to conditions: for intracellular cAMP response in astrocytes: 10^-9 M added to culture medium. Format: cell-based, rat. The protocol:
FIG. 6b. Intracellular cAMP accumulation in cultured astrocytes.
as §1
For orientation: Changes in cAMP serve as a functional read-out for many G protein-coupled receptors.

Experiment [2] has as its system superfused pituitary cells. The experiment is described as follows: Superfusion method using rat pituitary cell column: release of pituitary hormones. The class given is cell-based. Here is the method:
FIGS. 5A-5D. The effect of synthetic PACAP38 on the release of pituitary hormones from superfused pituitary cells. A pituitary cell superfusion method to determine the hypophysiotropic activity of samples was conducted as reported by Vigh and Schally. The peptide was applied as a 3 min pulse. The numbers at top indicate; 1,7: 100 mM KCl, 2: 10^-10 M PACAP38, 3: 10^-9 M PACAP38, 4: 10^-8 M PACAP38, 5: 10^-7 M PACAP38, 6: 10^-6 M PACAP38. 0.9 ml fractions were collected every 3 min.
A pituitary cell superfusion method to determine the hypophysiotropic activity of samples was conducted as reported by Vigh and Schally (1984). Pituitaries obtained from 3 adult female rats were cut into small pieces and incubated in a Dubnoff incubator for 45 min at 37° C. in 10 ml of oxygenated Medium 199 (Gibco/Life Technologies) containing 0.5% collagenase (Sigma Type I), 0.25% BSA and […] gentamicin sulphate (Sigma). After this incubation, there were no apparent changes in the pituitary tissue, but the fragments could be easily dispersed into single cells by repeated suction and expulsion from a Pasteur pipet. After 30 to 60 pipet operations, the tissue fell apart. The cell suspension was centrifuged at room temperature for 10 min at 100×g. The cell pellet was then resuspended in 1.0 ml medium. A small aliquot was diluted to count the cells, and the remainder of the suspension was divided into 2 equal volumes. Each volume (containing about 5×10^6 cells and usually between 3.5 and 7.0×10^6) was mixed with 0.5 ml Sephadex G-15 which had been equilibrated with previously oxygenated medium. The mixture of pituitary cells and Sephadex was transferred into 2 chambers of the superfusion apparatus and perfused with the medium. The medium was always freshly prepared in a way similar to that for enzymatic dispersion, omitting the collagenase, then passed through a Millipore filter, and continuously gassed with a mixture of O2 (95%) and CO2 (5%) during the experiment. The flow rate of the medium through the superfusion system was controlled by a multichannel pump (Gilson Minipulse Type HP-8) which was placed behind the superfusion chamber; the tuning of the lower plunger was connected to the pump, and from there to a two-channel fraction collector. Thus, the system was operated with negative pressure in order to get fewer fluctuations in the flow rate. Samples were applied as a 3 min pulse followed by the medium superfusion. Superfusate was collected as 3 min fractions, 0.9 ml per fraction.

The subject of experiment [3] is rat pituitary cell cultures. The experiment is described as follows: Intracellular cAMP accumulation in cultured pituitary cells. The following applies: temporal changes, concentration not given. The class given is cell-based. The source says: FIG. 6a. Intracellular cAMP accumulation in cultured pituitary cells.
We also determined temporal changes in intracellular cAMP levels in rat pituitary cell cultures.

Experiment [4] deals with neurons. As to conditions: De Brenneman et al. 1987, 1988; cited from earlier work.
[5] abbreviates: superfused rat pituitary cells, hormone release.

“Also recorded” adds a separate entry of the source. Ends that are not written are not given here.

For “HP: ovine hypothalamic peptide, partial N-terminal sequence His-Ser-Asp-Gly-Ile-Phe-Thr-Asp-Ser-Tyr-Lys-Arg-Tyr-Asn-Lys-Glu-Met-Ala-Lys- (HSDGIFTDSYKRYNKEMAK; printed: His-Ser-Asp-Gly-Ile-Phe-Thr-Asp-Ser-Tyr-Lys-Arg-Tyr-Asn-Lys-Glu-Met-Ala-Lys-)”, the “GH release from rat pituitary fragments” value in the experiment on rat pituitary fragments is on record as “stimulated GH release”.

For `CC[C@H](C)[C@H](NC(=O)CNC(=O)[C@H](CC(=O)O)NC(=O)[C@H](CO)NC(=O)[C@@H](N)Cc1c[nH]cn1)C(=O)N[C@@H](Cc1ccccc1)C(=O)N[C@H](C(=O)N[C@@H](CC(=O)O)C(=O)N[C@@H](CO)C(=O)N[C@@H](Cc1ccc(O)cc1)C(=O)N[C@@H](CO)C(=O)N[C@@H](CCCNC(=N)N)C(=O)N[C@@H](Cc1ccc(O)cc1)C(=O)N[C@@H](CCCNC(=N)N)C(=O)N[C@@H](CCCCN)C(=O)N[C@@H](CCC(N)=O)C(=O)N[C@@H](CCSC)C(=O)N[C@@H](C)C(=O)N[C@H](C(=O)N[C@@H](CCCCN)C(=O)N[C@@H](CCCCN)C(=O)N[C@@H](Cc1ccc(O)cc1)C(=O)N[C@@H](CC(C)C)C(=O)N[C@@H](C)C(=O)N[C@@H](C)C(=O)N[C@H](C(=O)N[C@@H](CC(C)C)C(=O)NCC(=O)N[C@@H](CCCCN)C(=O)N[C@@H](CCCNC(=N)N)C(=O)N[C@@H](Cc1ccc(O)cc1)C(=O)N[C@@H](CCCCN)C(=O)N[C@@H](CCC(N)=O)C(=O)N[C@@H](CCCNC(=N)N)C(=O)N[C@H](C(=O)N[C@@H](CCCCN)C(=O)N[C@@H](CC(N)=O)C(=O)N[C@@H](CCCCN)C(N)=O)C(C)C)C(C)C)C(C)C)[C@@H](C)O` [PACAP38], the “adenylate cyclase stimulating activity relative to VIP” value with adenylate cyclase (fold of VIP) is “at least 100 times”. In the experiment on neurons [1] (10^-9 M), the “time after which intracellular cAMP began to decrease, neurons” value was 10 min and the “time of first cAMP increase after addition, neurons” value is “as early as one minute”. Further, the “intracellular cAMP response in neurons” value in the experiment on neurons [1] is recorded as “increased intracellular cAMP”. For the same molecule, in the experiment on arterial blood pressure (anesthetized rats, injection into femoral vein), the depressor activity entry was “significant, but somewhat weaker”. Moreover, in the experiment with arterial blood pressure, the vasodepressor activity entry is “comparable vasodepressor activity”. In addition, in the experiment on astrocytes (10^-9 M), the “time intracellular cAMP levels remained elevated, astrocytes” value was “at least 60 minutes” and the “time of first cAMP increase after addition, astrocytes” value is “as early as one minute”. Besides, the “intracellular cAMP response in astrocytes” value in the experiment with astrocytes is listed as “extraordinarily large”. Further, in experiment [2] (3 min pulse, 10^-10 to 10^-6 M), the FSH release entry is “not altered; also recorded: not apparent”, the LH release result was “LH response was linear” and the TSH release entry is listed as “not altered; also recorded: not apparent”. In experiment [2] (setting [5]), the “dose of maximum effect (bell-shaped dose response curve)” value is recorded as 10^-8 M and the minimum effective dose is listed as 10^-10 M. Also, in experiment [3], the “intracellular cAMP accumulation (extent and pattern)” value (shortened to “intracellular cAMP accumulation”) was “comparable extent and pattern of cAMP accumulation”.

With `CC[C@H](C)[C@H](NC(=O)CNC(=O)[C@H](CC(=O)O)NC(=O)[C@H](CO)NC(=O)[C@@H](N)Cc1c[nH]cn1)C(=O)N[C@@H](Cc1ccccc1)C(=O)N[C@H](C(=O)N[C@@H](CC(=O)O)C(=O)N[C@@H](CO)C(=O)N[C@@H](Cc1ccc(O)cc1)C(=O)N[C@@H](CO)C(=O)N[C@@H](CCCNC(=N)N)C(=O)N[C@@H](Cc1ccc(O)cc1)C(=O)N[C@@H](CCCNC(=N)N)C(=O)N[C@@H](CCCCN)C(=O)N[C@@H](CCC(N)=O)C(=O)N[C@@H](CCSC)C(=O)N[C@@H](C)C(=O)N[C@H](C(=O)N[C@@H](CCCCN)C(=O)N[C@@H](CCCCN)C(=O)N[C@@H](Cc1ccc(O)cc1)C(=O)N[C@@H](CC(C)C)C(=O)N[C@@H](C)C(=O)N[C@@H](C)C(=O)N[C@H](C(=O)N[C@@H](CC(C)C)C(N)=O)C(C)C)C(C)C)[C@@H](C)O` [PACAP27NH2], the “ACSA activity compared with native PACAP38” value in the experiment on adenylate cyclase (cAMP in medium after 3 hr incubation) is on record as “similar, if not greater”. Also, in experiment [3], the “intracellular cAMP accumulation” value is “comparable extent and pattern of cAMP accumulation”.

With “growth hormone releasing hormone (YADAIFTNSYRKVLGQLSARKLLQDIMSRQQGESNQERGARARL; ends and bridges not checked; UniProt P01286 32-75, looked up) [GRH]”, the “intracellular cAMP accumulation” value in experiment [3] was “greatest accumulation of intracellular cAMP”.

Take “vasoactive intestinal peptide [VIP, reference compound]”: the “protection of neurons from gp120-induced cell death” value in the experiment on neurons [4] was “capable of protecting neurons from cell death”. Also, the “intracellular cAMP response in neurons” value in the experiment on neurons [1] was “did not induce an appreciable stimulation of cAMP”. In addition, the vasodepressor activity result in the experiment on arterial blood pressure was “comparable vasodepressor activity”. Further, the “intracellular cAMP response in astrocytes” value in the experiment with astrocytes is “did not induce an appreciable stimulation of cAMP”. The “intracellular cAMP accumulation” value in experiment [3] is reported as “little effect”.

In the case of “CRH: known hypothalamic releasing hormone (corticotropic releasing hormone) used for comparison (SEEPPISLDLTFHLLREVLEMARAEQLAQQAHSNRKLMEII; ends and bridges not checked; UniProt P06850 154-194, looked up)”, the “intracellular cAMP accumulation” value in experiment [3] was “comparable extent and pattern of cAMP accumulation”.
